The text below walks through data of patent US11192849B2, “Compounds, compositions, and methods for modulating ferroptosis and treating excitotoxic disorders” (THE TRUSTEES OF COLUMBIA UNIVERSITY IN THE CITY OF NEW YORK, priority 2013, dated 2021).

The EC50 is the midpoint of the concentration-response curve.

For test [1], the system named is primary pre-oligodendrocytes. The test can be described thus: PVL model: cystine deprivation of developing oligodendrocytes. Format: cell-based, rat. The conditions noted are these: 100 nM, 24 hrs, Alamar Blue. As to the method:
Primary pre-oligodendrocytes cultures were prepared from the forebrains of P2 Sprague Dawley (Charles River Laboratory) rat pups using a differential detachment method. Forebrains free of meninges were dissociated with Hanks' Balanced Salt Solution containing 0.01% trypsin and 10 μg/ml DNase, and triturated with DMEM containing 10% heat-inactivated fetal bovine serum and 100 U/ml penicillin and 100 μg/ml streptomycin. Dissociated cells were plated onto poly-D-lysine-coated 75 cm^2 flasks and fed cells every other day for 10-17 days. On day 10 or 17, following 1 hour pre-shake at 200 rpm 37° C. to remove microglia, the flasks were shaken overnight to separate pre-oligodendrocytes from astrocyte layer. The cell suspension was passed through a 20 μm filter and plated onto uncoated (bacteriological) petri dishes for 1 hour in incubator to remove residual microglia/astrocytes. Cell suspension was plated onto poly-D,L-ornithine-coated plates with DMEM, 1×ITS (Life Technologies), 2 mM L-glutamine, 1 mM sodium pyruvate, 0.5% FBS and 0.05% gentamicin (Sigma), 10 ng/ml PDGF and 10 ng/ml FGF (Peprotech), with full medium change the next day and half medium change every other day. […] Fluorescence was assayed in each well using FluoroCount Plate Reader (Packard), with Packard Plate Reader Version 3.0, and 530 nm excitation, and 590 nm emission filters. […]
Background: Alamar Blue is a resazurin reagent that responds to reducing activity.

In test [2] the test system is HT-1080 cells. Put plainly: Inhibition of erastin (10 μM)-induced death in HT-1080 cells (Alamar Blue). Format: cell-based, human. As to conditions: for EC50: Homo sapiens. A digest of the protocol: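 HT-1080 cells (1,000/well) were treated next day with 10 μM erastin plus a compound dilution series for 24 h. Alamar Blue (10% final) was then added for 6 h and fluorescence read at ex/em 530/590.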

Test [3] has as its system mouse kidney proximal tubules. Put plainly: Hydroxyquinoline + iron induced cell death in isolated mouse kidney proximal tubules (LDH release). Format: cell-based. As to conditions: 10 μM hydroxyquinoline and ferrous ammonium sulfate, 60 min. As to the method:
Tubule preparation: 8-12 week old C57/BL6 female mice were euthanized with isoflurane. […] The cortices were then dissected and minced on an ice cold tile, then resuspended in additional Solution A for 8-10 min. of digestion at 37° C. followed by enrichment of proximal tubules using centrifugation on self-forming Percoll gradients as previously described for rabbit tubules.
Experimental procedures for isolated tubules: Tubules were suspended at 1.5-2.0 mg tubule protein/ml in a 95% air/5% CO2-gassed medium containing (in mM) 110 NaCl, 2.6 KCl, 25 NaHCO3, 2.4 KH2PO4, 1.25 CaCl2, 1.2 MgCl2, 1.2 MgSO4, 5 glucose, 4 sodium lactate, 0.3 alanine, 5 sodium butyrate, 2 glycine, and 1.0 mg/ml bovine gelatin (75 bloom) (Solution B). After precincubation for 15 min. at 37° C., then were then resuspended in fresh Solution B containing 2 mM heptanoic acid instead of sodium butyrate along with experimental compounds.
In addition, the efficacy of Fer-1, SRS11-92, and selected analogs was tested in a model of iron-induced cell death in freshly isolated mouse kidney proximal tubules that simulates major elements of rhabdomyolysis-induced acute kidney injury (FIG. 15C). Cell death in this model is known to involve oxidative lipid damage (Sogabe, et al., 1996, Park, et al., 2011); it was therefore believed that Fer-1 might be protective. 10 μM each of hydroxyquinoline and ferrous ammonium sulfate (HQ+Fe) were used to induce cell death, which was quantified by monitoring LDH release after 60 min. […] By implication, cell death in these models may involve, at least in part, the induction of lipid peroxidation and perhaps ferroptosis.
A general note: LDH leaks from cells whose membrane has failed.

Structures are written as SMILES. Entries after “also recorded” stand apart in the source; their conditions may differ. Like-named read-outs stand apart in the source and are kept apart here.

With `CCOC(=O)c1ccc(NC2CCCCC2)c(N)c1` [SRS8-28 (Fer-1), ethyl 3-amino-4-(cyclohexylamino)benzoate], in test [1], the “protection of oligodendrocytes from cystine deprivation” value is “fully protected OLs from cystine deprivation”. Besides, the EC50 in test [2] (HT-1080, SI Table 2, analogs with various hydrophobic moieties) turned out to be 95 nM; in test [2] (HT-1080, SI Table 5) it was 88 nM; in test [2] (HT-1080, SI Table 8), 88 nM; in test [2] (HT-1080, Table 1 (Example 10), erastin (10 μM)-treated HT-1080 cells), 95 nM. Moreover, in test [2] (erastin-treated HT-1080 cells), the “prevention of erastin-induced death” value is listed as “suppressed erastin-induced death”. Further, the “HQ+Fe induced lethality (LDH release)” value in test [3] is listed as “prevented lethality; also recorded: protective”.

For the molecule `CCOC(=O)c1ccc(NC2CCCCC2)c(NCc2ccccc2)c1` [SRS11-92, ethyl 3-(benzylamino)-4-(cyclohexylamino)benzoate], the “protection of oligodendrocytes from cystine deprivation” value in test [1] is “fully protected OLs from cystine deprivation”. In test [2] (HT-1080, erastin (10 μM)), the “fold more potent than the parent Fer-1” value worked out at 15 fold. Also, the “potency compared with Fer-1” value in test [2] (HT-1080, erastin (10 μM)) is reported as “more potent than Fer-1”. Besides, the EC50 was 6 nM in test [2] (HT-1080, Example 15, erastin (10 μM), HT-1080, read-out: EC50); 6 nM in test [2] (HT-1080, SI Table 6, read-out: EC50); 6 nM in test [2] (HT-1080, SI Table 7, read-out: EC50). Also, the “HQ+Fe induced lethality (LDH release)” value in test [3] is reported as “prevented lethality”.
